Measured values: patent US20260297081A1, “COMPOUNDS AND METHODS OF TREATING CANCERS” (Cullgen Inc., priority 2023, published 2026)

Assays:
Assay type in all cases: cell-based
Calu-1 cells = experiment: Anti-proliferation (viability) of NSCLC Calu-1 cells, 3 days (Table 7, FIG. 2B); details: Homo sapiens, 72 h; Calu-1 cells, 3 days, 10-point serial dilution; read-out: GI IC50 in Calu-1
Experimental: To evaluate anti-proliferation activities of heterobifunctional compounds, NSCLC Calu-1 or ER+ breast cancer T47D cells were treated with selected heterobifunctional compounds following a 10-point serial dilution for 3 or 6 days, respectively.
To verify that heterobifunctional compound-mediated degradation is dependent on the binding to CDK4-cyclin D complex, a negative control compound, CPD-143, which is derived from active heterobifunctional compound CPD-10 was designed. CPD-143 bears the same DDB1 ligand and linker as CPD-10 but with a modified warhead to impair the binding of the control compound to CDK4.

CDK4 [1] = target: T1, CDK4 (Homo sapiens, UniProt P11802+Q16531); experiment: HiBiT detection of HiBiT-tagged CDK4 protein level in MCF7 cells, 16 hours (Table 8); set-up: expressed in transfected cells; host or cells: MCF7; details: MCF7 cells stably expressing HiBiT tagged target proteins; for activity at 0.01 µM: 10 nM, read-out: % CDK4 Relative Level (10 nM); for activity at 0.1 µM: 100 nM, read-out: % CDK4 Relative Level (100 nM)
Experimental: HiBiT detection system quantitatively measures total amounts of HiBiT-tagged proteins using a luminescent based method. MCF7 cells stably expressing HiBiT tagged target proteins were treated with heterobifunctional compounds at indicated concentrations for 16 hours, then lysed with Nano-Glo HiBiT Lytic detection reagents.
Target sequence in this assay (P11802 whole entry): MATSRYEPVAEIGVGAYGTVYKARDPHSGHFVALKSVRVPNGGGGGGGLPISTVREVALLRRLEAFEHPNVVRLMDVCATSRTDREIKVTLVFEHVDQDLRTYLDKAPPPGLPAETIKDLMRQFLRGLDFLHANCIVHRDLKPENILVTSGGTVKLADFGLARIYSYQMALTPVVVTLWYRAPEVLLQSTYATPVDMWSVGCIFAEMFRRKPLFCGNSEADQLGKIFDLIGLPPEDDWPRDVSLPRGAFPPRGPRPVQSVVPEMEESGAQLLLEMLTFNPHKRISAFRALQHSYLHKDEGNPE
Target sequence in this assay (P24385 whole entry partner): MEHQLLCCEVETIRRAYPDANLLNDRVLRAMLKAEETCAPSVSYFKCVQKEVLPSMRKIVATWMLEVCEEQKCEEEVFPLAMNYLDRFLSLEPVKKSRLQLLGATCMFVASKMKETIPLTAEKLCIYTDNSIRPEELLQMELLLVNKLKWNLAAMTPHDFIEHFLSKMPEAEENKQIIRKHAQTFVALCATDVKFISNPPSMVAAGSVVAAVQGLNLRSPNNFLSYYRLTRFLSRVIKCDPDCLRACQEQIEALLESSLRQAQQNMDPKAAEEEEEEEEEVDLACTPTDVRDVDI
Target sequence in this assay (Q16531 2-1140 limits assumed): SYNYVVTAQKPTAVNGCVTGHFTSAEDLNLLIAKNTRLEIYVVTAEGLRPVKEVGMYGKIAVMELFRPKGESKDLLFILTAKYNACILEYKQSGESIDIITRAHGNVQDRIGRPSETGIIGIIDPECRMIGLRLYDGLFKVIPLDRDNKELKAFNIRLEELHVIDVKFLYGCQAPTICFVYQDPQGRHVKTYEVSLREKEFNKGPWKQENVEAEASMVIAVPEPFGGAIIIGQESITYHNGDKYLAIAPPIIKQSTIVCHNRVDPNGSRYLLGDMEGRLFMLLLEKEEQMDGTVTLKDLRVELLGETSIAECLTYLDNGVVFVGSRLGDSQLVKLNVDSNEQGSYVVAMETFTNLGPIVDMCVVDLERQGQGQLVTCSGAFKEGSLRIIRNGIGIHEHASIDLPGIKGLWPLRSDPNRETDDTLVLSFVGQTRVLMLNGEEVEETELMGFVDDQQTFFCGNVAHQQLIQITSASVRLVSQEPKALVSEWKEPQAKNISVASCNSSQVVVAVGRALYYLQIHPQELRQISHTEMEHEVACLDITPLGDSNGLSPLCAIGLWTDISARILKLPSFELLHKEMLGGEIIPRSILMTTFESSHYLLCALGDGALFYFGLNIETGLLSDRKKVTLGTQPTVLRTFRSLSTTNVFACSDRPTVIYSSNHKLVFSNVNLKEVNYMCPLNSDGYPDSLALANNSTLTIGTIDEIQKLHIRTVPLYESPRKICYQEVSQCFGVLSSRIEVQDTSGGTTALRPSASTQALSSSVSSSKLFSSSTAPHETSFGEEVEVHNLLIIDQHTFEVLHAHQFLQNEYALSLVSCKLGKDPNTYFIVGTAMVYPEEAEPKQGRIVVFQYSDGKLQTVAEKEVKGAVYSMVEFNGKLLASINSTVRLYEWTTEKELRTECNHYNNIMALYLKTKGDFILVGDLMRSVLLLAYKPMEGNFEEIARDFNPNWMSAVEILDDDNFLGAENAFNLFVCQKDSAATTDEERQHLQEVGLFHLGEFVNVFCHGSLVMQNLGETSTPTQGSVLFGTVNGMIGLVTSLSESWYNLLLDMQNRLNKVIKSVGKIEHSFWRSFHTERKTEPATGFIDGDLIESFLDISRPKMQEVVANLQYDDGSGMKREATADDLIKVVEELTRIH

CDK4 [2] = target: T1, CDK4; experiment: CDK4 percentage degradation in Calu-1 cells (Table 6); set-up: Cells that express cyclin D1-3 and CDK4/6 proteins were treated with heterobifunctional compounds; endogenous in cells; host or cells: Calu-1; details: 16 hours; for inhibition at 0.04 µM: 40 nM; for inhibition at 0.2 µM: 200 nM
Outline: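 Percentage degradation of Cyclin D1 and CDK4 derived from densitometry of ECL Western blots on lysates of Calu-1 cells. Treatment was 16 h with compound at either 40 nM or 200 nM.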
Target sequence in this assay (P11802 2-303 limits assumed): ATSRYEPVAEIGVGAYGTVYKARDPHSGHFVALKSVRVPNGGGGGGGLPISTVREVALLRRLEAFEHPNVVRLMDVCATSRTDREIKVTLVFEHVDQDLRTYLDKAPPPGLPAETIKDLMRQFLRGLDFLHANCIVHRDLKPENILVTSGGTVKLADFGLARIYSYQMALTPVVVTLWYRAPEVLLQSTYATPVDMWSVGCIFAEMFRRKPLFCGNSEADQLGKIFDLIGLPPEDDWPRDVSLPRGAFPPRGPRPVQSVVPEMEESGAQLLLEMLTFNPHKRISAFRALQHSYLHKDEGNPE
Target sequence in this assay (P24385 whole entry partner): as the sequence (P24385 whole entry partner) above
Target sequence in this assay (Q16531 2-1140 limits assumed): as the sequence (Q16531 2-1140 limits assumed) above

MCF7 cells = experiment: Anti-proliferation (viability) of MCF7 cells (Table 7, FIG. 2B); details: Homo sapiens, MCF7, MCF7 cells, 3-6 days, 10-point serial dilution; read-out: GI IC50 in MCF-7

SMILES | IC50 (Calu-1 cells) [nM] | activity at 0.01 µM (CDK4 [1]) [%] | activity at 0.1 µM (CDK4 [1]) [%] | inhibition at 0.04 µM (CDK4 [2]) [%] | inhibition at 0.2 µM (CDK4 [2]) [%] | IC50 (MCF7 cells) [nM]
CC(=O)c1c(C)c2cnc(Nc3ccc(N4CCN(C5CCN(C(=O)C6(C)CCC(Nc7nc(NC(C)C)ccc7C(=O)Nc7ccc(N(C)C)nn7)CC6)C5)CC4)cn3)nc2n(C2CCCC2)c1=O (centres unmarked) [CPD-516, 2-((4-(3-(4-(6-((6-acetyl-8-cyclopentyl-5-methyl-7-oxo-7,8-dihydropyrido[2,3-d]pyrimidin-2-yl)amino)pyridin-3-yl)piperazin-1-yl)pyrrolidine-1-carbonyl)-4-methylcyclohexyl)amino)-N-(6-(dimethylamino)pyridazin-3-yl)-6-(isopropylamino)nicotinamide] | 10 to 50 |  |  |  |  | 
CC(=O)c1c(C)c2cnc(Nc3ccc(CN4CCN(CC(=O)NCC56CC(Nc7nc(NC(C)C)ccc7C(=O)Nc7ccc(N(C)C)nn7)(C5)C6)CC4)cn3)nc2n(C2CCCC2)c1=O [CPD-479, 2-((3-((2-(4-((6-((6-acetyl-8-cyclopentyl-5-methyl-7-oxo-7,8-dihydropyrido[2,3-d]pyrimidin-2-yl)amino)pyridin-3-yl)methyl)piperazin-1-yl)acetamido)methyl)bicyclo[1.1.1]pentan-1-yl)amino)-N-(6-(dimethylamino)pyridazin-3-yl)-6-(isopropylamino)nicotinamide] | ≤ 10 |  |  |  |  | 
[2H]C([2H])([2H])Nc1ccc(C(=O)Nc2cc3n(n2)CCC3)c(N[C@H]2CC[C@H](C(=O)N3CCC(N4CCN(c5ccc(Nc6ncc7c(C)c(C(C)=O)c(=O)n(C8CCCC8)c7n6)nc5)CC4)C3)CC2)n1 (stereo partly drawn) [CPD-521, 2-((trans-4-(3-(4-(6-((6-acetyl-8-cyclopentyl-5-methyl-7-oxo-7,8-dihydropyrido[2,3-d]pyrimidin-2-yl)amino)pyridin-3-yl)piperazin-1-yl)pyrrolidine-1-carbonyl)cyclohexyl)amino)-N-(5,6-dihydro-4H-pyrrolo[1,2-b]pyrazol-2-yl)-6-((methyl-d3)amino)nicotinamide] | 10 to 50 |  |  |  |  | 
[2H]C([2H])([2H])Nc1ccc(C(=O)Nc2ccc(N(C)C)nn2)c(NC2CC(NC(=O)N3CCC(N4CCN(c5ccc(Nc6ncc7c(C)c(C(C)=O)c(=O)n(C8CCCC8)c7n6)nc5)CC4)C3)C2)n1 (centres unmarked) [CPD-494, 2-((3-(3-(4-(6-((6-acetyl-8-cyclopentyl-5-methyl-7-oxo-7,8-dihydropyrido[2,3-d]pyrimidin-2-yl)amino)pyridin-3-yl)piperazin-1-yl)pyrrolidine-1-carboxamido)cyclobutyl)amino)-N-(6-(dimethylamino)pyridazin-3-yl)-6-((methyl-d3)amino)nicotinamide] | ≥ 50 |  |  |  |  | 
COc1ccc(NC(=O)c2ccc(NC(C)C)nc2N[C@H]2CC[C@H](C(=O)N3CCC(N4CCN(c5ccc(Nc6ncc7c(C)c(C(C)=O)c(=O)n(C8CCCC8)c7n6)nc5)CC4)C3)CC2)nn1 (stereo partly drawn) [CPD-500, 2-((trans-4-(3-(4-(6-((6-acetyl-8-cyclopentyl-5-methyl-7-oxo-7,8-dihydropyrido[2,3-d]pyrimidin-2-yl)amino)pyridin-3-yl)piperazin-1-yl)pyrrolidine-1-carbonyl)cyclohexyl)amino)-6-(isopropylamino)-N-(6-methoxypyridazin-3-yl)nicotinamide] | ≤ 10 |  |  |  |  | 
CC(=O)c1c(C)c2cnc(Nc3ccc(CN4CC5(C4)CN(C(=O)CN4CC6(CC(Nc7nc(NC(C)C)ccc7C(=O)Nc7ccc(N(C)C)nn7)C6)C4)C5)cn3)nc2n(C2CCCC2)c1=O [CPD-497, 2-((2-(2-(6-((6-((6-acetyl-8-cyclopentyl-5-methyl-7-oxo-7,8-dihydropyrido[2,3-d]pyrimidin-2-yl)amino)pyridin-3-yl)methyl)-2,6-diazaspiro[3.3]heptan-2-yl)-2-oxoethyl)-2-azaspiro[3.3]heptan-6-yl)amino)-N-(6-(dimethylamino)pyridazin-3-yl)-6-(isopropylamino) nicotinamide] | ≥ 50 |  |  |  |  | 
CC(=O)c1c(C)c2cnc(Nc3ccc(CN4CCN(C5CCN(C(=O)[C@H]6CC[C@H](Nc7nc(NC(C)C)ccc7C(=O)Nc7ccc(N(C)C)nn7)CC6)C5)CC4)cn3)nc2n(C2CCCC2)c1=O (some centres unmarked) [CPD-512, 2-((4-(3-(4-((6-((6-acetyl-8-cyclopentyl-5-methyl-7-oxo-7,8-dihydropyrido[2,3-d]pyrimidin-2-yl)amino)pyridin-3-yl)methyl)piperazin-1-yl)pyrrolidine-1-carbonyl)cyclohexyl)amino)-N-(6-(dimethylamino)pyridazin-3-yl)-6-(isopropylamino)nicotinamide] | 10 to 50 |  |  |  |  | 
CC(=O)c1c(C)c2cnc(Nc3ccc(CN4CC5(C4)CN(C(=O)CN4CCC(Nc6nc(NC(C)C)ccc6C(=O)Nc6ccc(N(C)C)nn6)CC4)C5)cn3)nc2n(C2CCCC2)c1=O [CPD-498, 2-((1-(2-(6-((6-((6-acetyl-8-cyclopentyl-5-methyl-7-oxo-7,8-dihydropyrido[2,3-d]pyrimidin-2-yl)amino)pyridin-3-yl)methyl)-2,6-diazaspiro[3.3]heptan-2-yl)-2-oxoethyl)piperidin-4-yl)amino)-N-(6-(dimethylamino)pyridazin-3-yl)-6-(isopropylamino)nicotinamide] | ≥ 50 |  |  |  |  | 
[2H]C([2H])([2H])Nc1ccc(C(=O)Nc2cn(C)c(C3CC3)n2)c(N[C@H]2CC[C@H](C(=O)N3CCC(N4CCN(c5ccc(Nc6ncc7c(C)c(C(C)=O)c(=O)n(C8CCCC8)c7n6)nc5)CC4)C3)CC2)n1 (some centres unmarked) [CPD-480, 2-((4-(3-(4-(6-((6-acetyl-8-cyclopentyl-5-methyl-7-oxo-7,8-dihydropyrido[2,3-d]pyrimidin-2-yl)amino)pyridin-3-yl)piperazin-1-yl)pyrrolidine-1-carbonyl)cyclohexyl)amino)-N-(2-cyclopropyl-1-methyl-1H-imidazol-4-yl)-6-((methyl-d3)amino)nicotinamide] | 10 to 50 |  |  |  |  | 
[2H]C([2H])([2H])Nc1ccc(C(=O)Nc2ccc(N(C)C)nn2)c(NC2CC3(C2)CN(C(=O)CN2CCC4(CCN(c5ccc(Nc6ncc7c(C)c(C(C)=O)c(=O)n(C8CCCC8)c7n6)nc5)C4)C2)C3)n1 (centres unmarked) [CPD-384, 2-((2-(2-(7-(6-((6-acetyl-8-cyclopentyl-5-methyl-7-oxo-7,8-dihydropyrido[2,3-d]pyrimidin-2-yl)amino)pyridin-3-yl)-2,7-diazaspiro[4.4]nonan-2-yl)acetyl)-2-azaspiro[3.3]heptan-6-yl)amino)-N-(6-(dimethylamino)pyridazin-3-yl)-6-((methyl-d3)amino)nicotinamide] |  | 55 to 85 | 55 to 85 | < 30 | < 30 | < 50
CC(=O)c1c(C)c2cnc(Nc3ccc(N4CCN(C(C)CC(=O)N5CC6(CC(Nc7nc(NC(C)C)ccc7C(=O)Nc7cn(C)c(C8CC8)n7)C6)C5)CC4)cn3)nc2n(C2CCCC2)c1=O (centres unmarked) [CPD-338, 2-((2-(3-(4-(6-((6-acetyl-8-cyclopentyl-5-methyl-7-oxo-7,8-dihydropyrido[2,3-d]pyrimidin-2-yl)amino)pyridin-3-yl)piperazin-1-yl)butanoyl)-2-azaspiro[3.3]heptan-6-yl)amino)-N-(2-cyclopropyl-1-methyl-1H-imidazol-4-yl)-6-(isopropylamino)nicotinamide] |  | 55 to 85 | 55 to 85 | 30 to 50 | 30 to 50 | < 50
CC(=O)c1c(C)c2cnc(Nc3ccc(N4CCN(CCC(=O)N5CC6(CC(Nc7nc(NC(C)C)ccc7C(=O)Nc7cc(C)n(C)n7)C6)C5)CC4)cn3)nc2n(C2CCCC2)c1=O [CPD-302, 2-((2-(3-(4-(6-((6-acetyl-8-cyclopentyl-5-methyl-7-oxo-7,8-dihydropyrido[2,3-d]pyrimidin-2-yl)amino)pyridin-3-yl)piperazin-1-yl)propanoyl)-2-azaspiro[3.3]heptan-6-yl)amino)-N-(1,5-dimethyl-1H-pyrazol-3-yl)-6-(isopropylamino)nicotinamide] |  | 55 to 85 | 55 to 85 | < 30 | < 30 | < 50
CC(=O)c1c(C)c2cnc(Nc3ccc(N4CCN(CCC(=O)N5CC6(CC(Nc7nc(NC(C)C)ccc7C(=O)Nc7ccc(N(C)C)nn7)C6)C5)CC4)cn3)nc2n(C2CCCC2)c1=O [CPD-305, 2-((2-(3-(4-(6-((6-acetyl-8-cyclopentyl-5-methyl-7-oxo-7,8-dihydropyrido[2,3-d]pyrimidin-2-yl)amino)pyridin-3-yl)piperazin-1-yl)propanoyl)-2-azaspiro[3.3]heptan-6-yl)amino)-N-(6-(dimethylamino)pyridazin-3-yl)-6-(isopropylamino)nicotinamide] |  | 55 to 85 | 55 to 85 | 30 to 50 | 30 to 50 | < 50
